Legend:
[1] = test system: human Adenovirus 8 (hAdV8); test: hAdV8 infection of organoid-derived conjunctival ALI cultures, viral titers by qPCR and cytopathic effects; format: cell-based; details: 17-day-old conjunctival ALI cultures, up to 96 hours; for reversal of adenoviral (hAdV8) infection: 10 μM Acyclovir, 60 μM Cidofovir or 20 μM Nelfinavir
From the text: Adenoviruses are the leading cause of viral conjunctivitis. Yet, to date, no medication is available, partly because there is no model system for this type of ocular infection. An hAdV8 strain, isolated from a patient was provided by Dr. Nobuyo Yawata and Dr. Makoto Yawata (Kyushu University, Japan and NUS, Singapore) (see Yawata, N., and Yawata, M. 2022. Assessing the Response of Human NK Cell Subsets to Infection by Clinically Isolated Virus Strains. Methods Mol Biol 2463, 205-220. https://doi.org/10.1007/978-1-0716-2160-8_15). hAdV8 was added to 17-day-old conjunctival ALI cultures (FIG. 6E). Conjunctival ALI cultures were readily infected by hAdV8, as confirmed by the viral titre measured by qPCR (not shown). CPEs were visible starting from 48 hours after infection: infected cells darkened and were extruded from the epithelium. We then tested several antiviral drugs experimentally applied for adenoviral conjunctivitis (Acyclovir, Cidofovir and Nelfinavir) to test their efficacy in blocking the infection.
Human organoids (5-7 days after split) were harvested, trypsinized to single cells using 0.25% Trypsin/EDTA (ThermoFisher Scientific) for 5 minutes and 100,000 cells were seeded in 100 μL human expansion medium on 6.5 mm-wide transwells (Corning or Greiner). Human expansion medium was added to the lower compartment. After 3 to 4 days, when cells had reached confluency, medium from the upper compartment was removed to lift the cultures to air-liquid interface (ALI). The ALI cultures were maintained up to 22 days. The medium in the bottom compartment was changed every 3-4 days.
An hAdV8 strain isolated from a patient was used. Similar to HSV1 infection, hAdV8 at MOI 10 was added to the ALI culture in 50 μL PBS for 3 hours, before being washed away. Every 24 hours, the shed viruses were collected in 100 μL PBS and stored until further processing. If indicated, 10 μM Acyclovir (PHR1254, Sigma-Aldrich), 60 μM Cidofovir (C5874, Sigma-Aldrich) or 20 μM Nelfinavir (PZ0013, Sigma-Aldrich) was added to the bottom compartment after incubating with the virus. hAdV8-infected ALI cultures were kept for up to 4 days and, if required, fixed.
At the time of processing of the pellets for organoids and supernatants for ALI cultures, DNA was extracted using Zymogen Quick-DNA Microprep kit (ZY-D3020, Zymogen). DNA was systematically resuspended in 15 μL nuclease-free water (QIAGEN). Viral DNA was then quantified by qPCR as follow: 5 μL of the DNA extract was mixed together with 5 μL of SYBR green (Bio-Rad) containing HSV1 detection primers (HSV1-F: […] (SEQ ID NO: 13) and HSV1-R: […] (SEQ ID NO: 14)) or hAdV8 detection primers (hAdV8-F: […] (SEQ ID NO: 15) and hAdV8-R: […] (SEQ ID NO: 16). The SYBR green was mixed with 10 μM primer mix at a ratio 10:1. Technical duplicates were assessed by qPCR. The following program was used for viral DNA amplification: 95° C. for 2 minutes, followed by 40 cycles of 98° C. for 15 seconds, 60° C. for 15 seconds and 72° C. for 15 seconds. For quantifying the viral DNA content in ALI supernatants, we amplified 179 bp of HSV1-tdTomato genome using HSV1-F and HSV1-R and 1004 bp of the hAdV8 genome using hAdV8-F and hAdV8-R. We cloned both in a pJet vector (Thermo Fisher Scientific) and used it to make a standard curve ranging from 2.104 to 2.109 copies of viral genome according to Addgene instructions (https://www.addgene.org/protocols/aav-titration-qpcr-using-sybr-green-technology/). […]

[2] = test system: Herpes Simplex Virus 1 (HSV1); test: HSV1 infection of organoid-derived conjunctival ALI cultures, viral titers by qPCR; format: cell-based; details: 10 μM Acyclovir in bottom compartment after virus incubation; 17-day-old human conjunctival ALI cultures; followed 96 hours
Protocol: To model HSV1 infection, we exposed the apical surface of fully differentiated 17-day-old ALI cultures for 3 hours to an HSV1 strain whose capsid protein VP26 was tagged with tdTomato (hereafter called HSV1-tdTomato, FIG. 6A). HSV1 titrer increased by 5 logs over the course of 96 hours after initial incubation with HSV1, implying a productive infection of the conjunctival ALI culture with HSV1 (FIG. 6B). In addition, we observed that the tdTomato signal increased over time in HSV1-infected ALI cultures when imaged using an Auto-EVOS microscope (Thermo Fisher Scientific) (Data not shown). […] Acyclovir, an inhibitor of HSV1 DNA polymerase, is commonly given to patients with HSV1-induced conjunctivitis. Indeed, the infection was blocked when ALI cultures were treated with 10 μM Acyclovir (FIG. 6A-B). Thus, organoid-derived ALI cultures support HSV1 infection and represent a human ocular surface model for HSV1 infection.
Human organoids (5-7 days after split) were harvested, trypsinized to single cells using 0.25% Trypsin/EDTA (ThermoFisher Scientific) for 5 minutes and 100,000 cells were seeded in 100 μL human expansion medium on 6.5 mm-wide transwells (Corning or Greiner). […]
Herpes Simplex Virus 1 containing endogenously tagged […] capsid protein with tdTomato (HSV1-tdTomato) was used. […] Viral titer quantification was performed as indicated below. […]

Cc1c(O)cccc1C(=O)N[C@@H](CSc1ccccc1)[C@H](O)CN1C[C@H]2CCCC[C@H]2C[C@H]1C(=O)NC(C)(C)C [Nelfinavir]
reversal of adenoviral (hAdV8) infection [1]: only Cidofovir could reverse adenoviral infection

Nc1nc2c(ncn2COCCO)c(=O)[nH]1 [Acyclovir]
reversal of adenoviral (hAdV8) infection [1]: only Cidofovir could reverse adenoviral infection
HSV1 infection (HSV1 titers detected by qPCR) [2]: blocked

Nc1ccn(C[C@@H](CO)OCP(=O)(O)O)c(=O)n1 [Cidofovir]
reversal of adenoviral (hAdV8) infection [1]: could reverse adenoviral infection
cytopathic effects (CPEs) after hAdV8 infection ([1]; 60 μM Cidofovir): absence
hAdV8 viral titre (qPCR) ([1]; 60 μM Cidofovir): decrease
